Results: article PMC3375280 (PLoS ONE, 2012)
“And” between values parts separate entries of the source, which are not always exact repeats. Identical values can stand only once.

What was measured:
[1] = target: T1, AT1 wild-type (WT) receptor (Rattus norvegicus, UniProt P25095); experiment: 125I-[Sar1,Ile8]AngII competition binding, wild-type receptor; settings: WT; for Kd: COS1 cell membranes, 100 pM 125I-[Sar1,Ile8]AngII, 1 h 22°C, read-out: Binding affinity (Kd); for Kd ratio relative to olmesartan (in parentheses): compound Kd / olmesartan Kd
T1 construct: expressed in transfected cells; host or cells: COS1
T1 sequence (P25095 1-359): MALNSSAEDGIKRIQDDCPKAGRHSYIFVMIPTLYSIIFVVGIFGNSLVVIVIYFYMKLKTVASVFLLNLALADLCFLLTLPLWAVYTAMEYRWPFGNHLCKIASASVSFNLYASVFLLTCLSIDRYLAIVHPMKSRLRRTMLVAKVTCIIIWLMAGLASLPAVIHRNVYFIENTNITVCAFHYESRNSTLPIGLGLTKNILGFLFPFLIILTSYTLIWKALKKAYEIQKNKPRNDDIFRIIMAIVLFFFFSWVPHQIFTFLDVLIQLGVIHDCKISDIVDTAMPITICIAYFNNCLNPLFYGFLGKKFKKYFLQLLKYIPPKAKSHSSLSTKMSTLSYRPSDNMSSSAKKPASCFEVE
Method: The Kd and Bmax values of receptor binding were determined by ^125I-[Sar^1, Ile^8] […] Membranes expressing the WT or mutant AT1 receptors were incubated with 100 pM ^125I-[Sar^1, Ile^8] […] The binding reaction was terminated by filtering the incubation mixture through Whatman GF/C glass filters, and the residues were extensively washed further with binding buffer. The bound ligand fraction was determined from the counts per minute (cpm) remaining on the membrane. Binding kinetics values were determined as previously described.

[2] = target: T2, wild-type (WT) AT1 receptor (Rattus norvegicus, UniProt P25095); experiment: inositol phosphate (IP) production in COS1 cells expressing WT AT1 receptor; settings: 1 µM compound, vs basal IP production
T2 sequence (P25095 1-359): T1 sequence (P25095 1-359)
Method: The test compounds were added 1 h before the measurement of IP.
The WT and mutant AT1 receptors were transiently transfected into COS1 cells using Lipofectamine 2000 liposomal reagent (Roche Applied Science) according to the manufacturer’s instructions.
Cells expressing the WT and mutant AT1 receptors were incubated for 30 minutes at 22°C with or without the indicated concentrations of ARBs. The cells were washed-out once with the use of excess cold HBSS, and used in an IP production study. Total soluble IP was measured by the perchloric acid extraction method, as described previously [16].

[3] = test system: AT1 receptor; settings: Cys76 accessible; cited from earlier work

Kd [1] [nM] | Kd ratio relative to olmesartan (in parentheses) [1] | Pharmacological behaviour toward IP production (agonism / neutral antagonism / inverse agonism) [2] | Structure (SMILES) | % inhibition of 125I-[Sar1,Ile8]AngII binding by MTSEA+ reagent [3]
125 ± 26 | – | neutral antagonism | CCCc1nc(C(C)(C)O)c(C(=O)O)n1Cc1ccc(-c2cc(Cc3cccc(O)c3)ccc2-c2nnn[nH]2)cc1 [R791212] | –
276 ± 22 | 100 fold and 120 fold | agonism | CCCc1nc(C(C)(C)O)c(C(N)=O)n1Cc1ccc(-c2cc(Cc3ccccc3)ccc2-c2nnn[nH]2)cc1 [R801832] | –
179 ± 84 | – | agonism | CCCc1nc(C(C)C)c(C(N)=O)n1Cc1ccc(-c2cc(Cc3ccc(O)cc3)ccc2-c2nnn[nH]2)cc1 [R795100] | –

More lines, now with the values behind:

Structure (SMILES) | Kd [1] [nM] | Kd ratio relative to olmesartan (in parentheses) [1] | Pharmacological behaviour toward IP production (agonism / neutral antagonism / inverse agonism) [2] | % inhibition of 125I-[Sar1,Ile8]AngII binding by MTSEA+ reagent [3]
CCCc1nc(C(C)(C)O)c(C(=O)O)n1Cc1ccc(-c2cc(Cc3ccc(O)cc3)ccc2-c2nnn[nH]2)cc1 [R781253] | 21 ± 10 | 9.1 fold | inverse agonism | –
CCCc1nc(C(C)(C)O)c(C(=O)O)n1Cc1ccc(-c2cc(Cc3ccc(OCOC)cc3)ccc2-c2nnn[nH]2)cc1 [R781254] | 396 ± 80 | 172 fold | inverse agonism | –
CS(=O)(=O)SCCN [MTSEA^+, methanethiosulphonate ethyl-ammonium] | – | – | – | approximately 30%
